Measurements taken from patent publication US12516131B2, “Methods for preventing acute kidney injury” (University of Maryland, Baltimore, priority 2018, dated 2026).
Like-named read-outs stand apart in the source and are kept apart here.

Key:
[1] = Lability of reconstituted/diluted DIGIFAB (ouabain binding capacity after storage), protection by E-64; assay type: physicochemical; settings: E-64 at final concentration 1 μM in diluted DIGIFAB
Excerpt: To maintain the immuno-neutralizing activity of stored dilute DIGIFAB samples, we tested the effect of the irreversible protease (primarily papain) inhibitor, E-64.

[2] = system: ischemia-induced renal injury; settings: somewhat similar rat model; cited from earlier work
[3] = rats, cited from earlier work
[4] = system: renal ischemia/reperfusion (RIR) in Wistar rats; test: Example 1: plasma creatinine in rats following renal ischemia/reperfusion (45 min bilateral renal pedicle clamping); assay type: in vivo, rat; settings: Ouabain infusion (10 μg/kg/day) / Saline injection; n=9; ±SE
Procedure: FIG. 7. Effect of DIGIFAB on plasma creatinine in rats following renal ischemia/reperfusion (RIR). Normal male Wistar rats were implanted on “Day 0” with a subcutaneous minipump to deliver ouabain (10 μg/kg/day: open symbols) or vehicle (6 μl/day; solid symbols). Beginning on Day 13, half of the ouabain-infused rats and half of the vehicle-infused rats were injected with DigiFab (triangles), and the remainder (circles) were injected with an equal volume of saline: The DigiFab-treated rats received 0.2 ml DigiFab (10 mg/ml) at 15 hr and 6 hr, and 0.1 ml DigiFab 1 hr pre-operatively. […] Plasma creatinine was measured with a commercial creatinine enzymatic assay kit. […] The subsequent decline toward baseline (measured at 72 hrs; i.e., Day 17) was more rapid (i.e., the slope was steeper) in the DigiFab-injected rats than in the saline-injected rats. […]
Male Wistar ICS rats (˜300 g) on normal diet were implanted on “Day 0” with a subcutaneous minipump to deliver ouabain—see FIG. 7—(10 μg/kg/day; open symbols) or vehicle (6 μl/day; solid symbols). […] Plasma creatinine was measured after ultrafiltration with 10K filters using a slightly modified rat creatinine enzymatic assay kit (Crystal Chem, Inc., Elk Grove Village, IL). […] The subsequent decline toward baseline (measured at 72 hrs; i.e., Day 17) was more rapid (i.e., the slope was steeper) in the DigiFab-injected rats than in the saline-injected rats. […]

With `CC(C)C[C@H](NC(=O)[C@H]1C[C@@H]1C(=O)O)C(=O)NCCCCNC(=N)N` [E-64, (1S,2S)-2-(((S)-1-((4-guanidinobutyl)amino)-4-methyl-1-oxopentan-2-yl)carbamoyl)cyclopropanecarboxylic acid] the “effect of E-64 on stability of DIGIFAB's ouabain binding capacity” value [1] was “markedly improved the stability”.
For `C[C@]12CC[C@H](O)C[C@H]1CC[C@@H]1[C@@H]2CC[C@]2(C)[C@@](O)(c3ccoc3)CC[C@]12O` [rostafuroxin], the “effect on ischemia-induced renal injury” value [2] is given as “attenuated ischemia-induced renal injury”.
In the case of `C[C@@H]1O[C@@H](O[C@H]2C[C@@H](O)[C@]3(CO)[C@H]4[C@H](O)C[C@]5(C)[C@@H](C6=CC(=O)OC6)CC[C@]5(O)[C@@H]4CC[C@]3(O)C2)[C@H](O)[C@H](O)[C@H]1O` [Ouabain], the “steady state plasma level” value ([3]; ouabain infused chronically at 3 μg/Kg/24 hr) is listed as ~1.95 nM, the “steady state plasma level” value ([3]; ouabain infused chronically at 10 μg/Kg/24 hr) is listed as ~2.2 nM and the “steady state plasma level” value ([3]; ouabain infused chronically at 30 μg/Kg/24 hr) is listed as ~4.8 nM. For the same compound, the “Percent Recovery of plasma creatinine toward baseline, 24 to 72 hrs post-op” value [4] was 38.6±17.5%.
